Earlier results in patent publication US9193713B2, “Compounds as cannabinoid receptor ligands” (priority 2007, dated 2015).

What was measured:
animal models = conditions: acute thermal, persistent, inflammatory and neuropathic pain models
rat = rat formalin model of persistent pain
microglial = conditions: in vitro; effects blocked by SR144528
rodent = conditions: neuropathic, incisional, chronic and acute inflammatory pain
[1] = test system: apolipoprotein E knockout mice; conditions: low doses; effects inhibited by SR144528
mice = conditions: model for post-menopausal osteoporosis

For `CN1CCCCC1Cn1cc(C(=O)c2cc([N+](=O)[O-])ccc2I)c2ccccc21` (stereo not shown) [AM-1241], the analgesic efficacy (animal models) is listed as “robust analgesic efficacy”.
For `CCCCCCC(C)(C)c1cc(OC)c([C@@H]2C=C(CO)[C@@H]3C[C@H]2C3(C)C)c(OC)c1` [HU-308], the antinociceptive response (rat) is given as “elicits an antinociceptive response”.
For `CCCC(C)(C)c1ccc2c(c1)OC(C)(C)[C@@H]1CC=C(C)C[C@@H]21` [JWH-133], the “effect on β-amyloid-induced microglial activation and neurotoxicity” value (microglial) is given as “abrogated β-amyloid-induced microglial activation and neurotoxicity”.
In the case of `COc1ccc2c(c1)c(CCN1CCOCC1)c(C)n2C(=O)c1cccc(Cl)c1Cl` [GW405833], the “efficacy in pain models” value (rodent) is given as “efficacious”.
For (−)-Δ^9-Tetrahydrocannabinol [THC], the “effect on progression of atherosclerotic lesions” value [1] is given as “slowed the progression of atherosclerotic lesions”.
For SR144528, the “effect on osteoclast activity” value (osteoclast) is listed as “inhibit osteoclast activity” and the “effect on ovariectomy-induced bone loss” value (mice) is listed as “reverse ovariectomy-induced bone loss”.
